# Measurements reported in patent US10227350B2 (Gilead Sciences, Inc., priority 2016, dated 2019).
# Target: PI3Kβ (Homo sapiens (Human), UniProt P42338)
# Assay: TR-FRET enzymatic activity assay, PI3Kβ
# Assay type: biochemical
# Settings: 2× Km ATP, 2 μM PIP2, 30 minutes at 25° C., read-out: IC50-PIP-Beta
# Method in brief: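 Purified recombinant heterodimeric PI3Kβ; PIP3 formation read by TR-FRET as competition with fluorescent tracer for GRP-1 PH domain binding. Compounds incubated 30 min at 25 °C.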
# Chain of PI3Kβ (P42338 whole entry): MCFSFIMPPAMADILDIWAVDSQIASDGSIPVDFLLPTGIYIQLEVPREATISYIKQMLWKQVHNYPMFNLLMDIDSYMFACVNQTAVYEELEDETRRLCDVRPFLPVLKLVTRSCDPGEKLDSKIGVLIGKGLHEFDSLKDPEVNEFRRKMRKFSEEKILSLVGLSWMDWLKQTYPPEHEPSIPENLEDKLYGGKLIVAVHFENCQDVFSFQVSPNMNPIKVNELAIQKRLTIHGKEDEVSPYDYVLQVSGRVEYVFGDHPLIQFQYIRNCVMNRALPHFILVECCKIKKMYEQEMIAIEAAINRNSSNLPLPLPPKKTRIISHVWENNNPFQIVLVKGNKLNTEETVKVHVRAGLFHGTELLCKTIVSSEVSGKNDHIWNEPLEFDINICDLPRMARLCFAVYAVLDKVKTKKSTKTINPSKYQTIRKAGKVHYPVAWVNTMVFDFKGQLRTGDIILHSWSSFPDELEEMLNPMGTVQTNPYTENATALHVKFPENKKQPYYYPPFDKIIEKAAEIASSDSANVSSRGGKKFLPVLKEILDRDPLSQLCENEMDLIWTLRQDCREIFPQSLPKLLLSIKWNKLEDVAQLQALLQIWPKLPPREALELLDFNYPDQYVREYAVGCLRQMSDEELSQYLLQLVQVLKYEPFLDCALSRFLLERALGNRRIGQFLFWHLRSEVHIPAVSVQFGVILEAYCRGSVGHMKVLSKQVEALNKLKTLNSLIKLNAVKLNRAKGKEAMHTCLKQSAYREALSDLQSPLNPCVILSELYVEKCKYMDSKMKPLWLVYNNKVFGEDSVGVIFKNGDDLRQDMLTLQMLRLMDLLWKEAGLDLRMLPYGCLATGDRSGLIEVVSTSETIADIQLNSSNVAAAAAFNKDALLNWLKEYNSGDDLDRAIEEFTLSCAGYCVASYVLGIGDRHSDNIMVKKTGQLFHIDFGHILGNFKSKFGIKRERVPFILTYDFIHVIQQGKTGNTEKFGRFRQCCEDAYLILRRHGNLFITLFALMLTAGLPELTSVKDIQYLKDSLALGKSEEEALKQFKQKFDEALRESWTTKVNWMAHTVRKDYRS
# Chain of PI3Kβ (P27986 whole entry partner): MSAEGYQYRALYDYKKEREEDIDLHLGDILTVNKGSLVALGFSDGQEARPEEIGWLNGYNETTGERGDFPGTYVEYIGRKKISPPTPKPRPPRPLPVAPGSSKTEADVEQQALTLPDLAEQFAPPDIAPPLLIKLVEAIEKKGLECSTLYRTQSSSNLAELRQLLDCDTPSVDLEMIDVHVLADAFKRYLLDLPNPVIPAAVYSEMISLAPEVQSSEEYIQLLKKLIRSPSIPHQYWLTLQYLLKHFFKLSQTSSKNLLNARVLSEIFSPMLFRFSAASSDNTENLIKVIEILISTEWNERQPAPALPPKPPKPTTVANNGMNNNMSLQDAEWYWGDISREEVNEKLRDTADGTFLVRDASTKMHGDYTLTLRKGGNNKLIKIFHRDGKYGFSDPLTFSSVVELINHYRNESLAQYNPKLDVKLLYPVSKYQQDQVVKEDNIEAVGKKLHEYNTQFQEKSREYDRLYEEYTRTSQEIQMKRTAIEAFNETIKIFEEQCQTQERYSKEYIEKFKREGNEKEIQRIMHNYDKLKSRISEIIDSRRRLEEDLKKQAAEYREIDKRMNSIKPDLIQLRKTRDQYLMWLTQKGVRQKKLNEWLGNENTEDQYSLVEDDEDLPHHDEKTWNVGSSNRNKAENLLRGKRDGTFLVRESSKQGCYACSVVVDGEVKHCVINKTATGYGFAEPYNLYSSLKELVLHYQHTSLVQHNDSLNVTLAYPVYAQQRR
row,Structure (SMILES),IC50 [nM]
1,"CCCc1nc2c(-c3nnc[nH]3)cc(-c3ccnc(N)c3)cc2n1-c1ccnc2c(Cl)ccc(F)c12 [Example 63, 4-[3-(8-chloro-5-fluoroquinolin-4-yl)-2-propyl-7-(4H-1,2,4-triazol-3-yl)benzimidazol-5-yl]pyridin-2-amine]",7
2,"Cc1nnc(-c2cc(-c3ccnc(N)c3)cc3c2nc(C2CC2)n3-c2ccnc3c(Cl)ccc(F)c23)[nH]1 [Example 64, 4-[3-(8-chloro-5-fluoroquinolin-4-yl)-2-cyclopropyl-7-(5-methyl-4H-1,2,4-triazol-3-yl)benzimidazol-5-yl]pyridin-2-amine]",200
3,"CCCc1nc2c(-c3nnc(C)[nH]3)cc(-c3ccnc(N)c3)cc2n1-c1ccnc2c(Cl)ccc(F)c12 [Example 65, 4-[3-(8-chloro-5-fluoroquinolin-4-yl)-7-(5-methyl-4H-1,2,4-triazol-3-yl)-2-propylbenzimidazol-5-yl]pyridin-2-amine]",16
4,"Cc1nnc(-c2cc(-c3ccnc(N)c3)cc3c2nc(C(C)C)n3-c2ccnc3c(Cl)ccc(F)c23)[nH]1 [Example 66, 4-[3-(8-chloro-5-fluoroquinolin-4-yl)-7-(5-methyl-4H-1,2,4-triazol-3-yl)-2-propan-2-ylbenzimidazol-5-yl]pyridin-2-amine]",140
5,"CC(C)c1nc2c(-c3nnc[nH]3)cc(-c3ccnc(N)c3)cc2n1-c1ccnc2c(Cl)ccc(F)c12 [Example 67, 4-[3-(8-chloro-5-fluoroquinolin-4-yl)-2-propan-2-yl-7-(4H-1,2,4-triazol-3-yl)benzimidazol-5-yl]pyridin-2-amine]",8
6,"Nc1cc(-c2cc(-c3nnc[nH]3)c3nc(C4COC4)n(-c4ccnc5c(Cl)ccc(F)c45)c3c2)ccn1 [Example 68, 4-[3-(8-chloro-5-fluoroquinolin-4-yl)-2-(oxetan-3-yl)-7-(4H-1,2,4-triazol-3-yl)benzimidazol-5-yl]pyridin-2-amine]",35
7,"Nc1cc(-c2cc(-c3nnc[nH]3)c3nc(C4CC4)n(-c4ccnc5c(F)ccc(F)c45)c3c2)ccn1 [Example 69, 4-[2-cyclopropyl-3-(5,8-difluoroquinolin-4-yl)-7-(4H-1,2,4-triazol-3-yl)benzimidazol-5-yl]pyridin-2-amine]",47
8,"CCc1nc2c(-c3nnc[nH]3)cc(-c3ccnc(N)c3)cc2n1-c1ccnc2c(F)ccc(F)c12 [Example 70, 4-[3-(5,8-difluoroquinolin-4-yl)-2-ethyl-7-(4H-1,2,4-triazol-3-yl)benzimidazol-5-yl]pyridin-2-amine]",13
9,"Nc1cc(-c2cc(-c3nnc[nH]3)c3nc(CC4CC4)n(-c4ccnc5c(F)ccc(F)c45)c3c2)ccn1 [Example 71, 4-[2-(cyclopropylmethyl)-3-(5,8-difluoroquinolin-4-yl)-7-(4H-1,2,4-triazol-3-yl)benzimidazol-5-yl]pyridin-2-amine]",13
10,"CCCc1nc2c(-c3nnc[nH]3)cc(-c3ccnc(N)c3)cc2n1-c1ccnc2c(F)ccc(F)c12 [Example 72, 4-[3-(5,8-difluoroquinolin-4-yl)-2-propyl-7-(4H-1,2,4-triazol-3-yl)benzimidazol-5-yl]pyridin-2-amine]",10
11,"Nc1cc(-c2cc(-c3nnc[nH]3)c3nc(CC4CC4)n(-c4ccnc5c(Cl)cccc45)c3c2)ccn1 [Example 73, 4-[3-(8-chloroquinolin-4-yl)-2-(cyclopropylmethyl)-7-(4H-1,2,4-triazol-3-yl)benzimidazol-5-yl]pyridin-2-amine]",8
12,"Nc1cc(-c2cc(-c3nnc[nH]3)c3nc(C4CC4)n(-c4ccnc5c(Cl)cccc45)c3c2)ccn1 [Example 74, 4-[3-(8-chloroquinolin-4-yl)-2-cyclopropyl-7-(4H-1,2,4-triazol-3-yl)benzimidazol-5-yl]pyridin-2-amine]",29
13,"Cc1nc2c(-c3nnc[nH]3)cc(-c3ccnc(N)c3F)cc2n1-c1ccnc2c(F)ccc(F)c12 [Example 75, 4-[3-(5,8-difluoroquinolin-4-yl)-2-methyl-7-(4H-1,2,4-triazol-3-yl)benzimidazol-5-yl]-3-fluoropyridin-2-amine]",3
14,"Cc1nc2c(-c3nnc[nH]3)cc(-c3cc(N)ncc3F)cc2n1-c1ccnc2c(F)ccc(F)c12 [Example 76, 4-[3-(5,8-difluoroquinolin-4-yl)-2-methyl-7-(4H-1,2,4-triazol-3-yl)benzimidazol-5-yl]-5-fluoropyridin-2-amine]",50
15,"CNc1nccc(-c2cc(-c3nnc[nH]3)c3nc(C)n(-c4ccnc5c(F)ccc(F)c45)c3c2)c1F [Example 77, 4-[3-(5,8-difluoroquinolin-4-yl)-2-methyl-7-(4H-1,2,4-triazol-3-yl)benzimidazol-5-yl]-3-fluoro-N-methylpyridin-2-amine]",1400
16,"CCCc1nc2c(-c3nnc[nH]3)cc(-c3ccnc(N)c3F)cc2n1-c1ccnc2c(F)ccc(F)c12 [Example 78, 4-[3-(5,8-difluoroquinolin-4-yl)-2-propyl-7-(4H-1,2,4-triazol-3-yl)benzimidazol-5-yl]-3-fluoropyridin-2-amine]",5
17,"Nc1nccc(-c2cc(-c3nnc[nH]3)c3nc(C4CC4)n(-c4ccnc5c(Cl)cccc45)c3c2)c1F [Example 79, 4-[3-(8-chloroquinolin-4-yl)-2-cyclopropyl-7-(4H-1,2,4-triazol-3-yl)benzimidazol-5-yl]-3-fluoropyridin-2-amine]",8
18,"Cc1nc2c(-c3nnc[nH]3)cc(-c3ccnc(N)c3F)cc2n1-c1ccnc2c(Cl)cccc12 [Example 80, 4-(1-(8-chloroquinolin-4-yl)-2-methyl-4-(4H-1,2,4-triazol-3-yl)-1H-benzo[d]imidazol-6-yl)-3-fluoropyridin-2-amine]",2
19,"Nc1nccc(-c2cc(-c3nnc[nH]3)c3nc(C4CC4)n(-c4ccnc5c(F)ccc(F)c45)c3c2)c1F [Example 81, 4-[2-cyclopropyl-3-(5,8-difluoroquinolin-4-yl)-7-(4H-1,2,4-triazol-3-yl)benzimidazol-5-yl]-3-fluoropyridin-2-amine]",15
20,"CNc1cc(-c2cc(-c3nnc[nH]3)c3nc(C)n(-c4ccnc5c(F)ccc(F)c45)c3c2)c(F)cn1 [Example 82, 4-[3-(5,8-difluoroquinolin-4-yl)-2-methyl-7-(4H-1,2,4-triazol-3-yl)benzimidazol-5-yl]-5-fluoro-N-methylpyridin-2-amine]",120
21,"Cc1nc2c(-c3nnc[nH]3)cc(-c3ccnc(N)c3F)cc2n1-c1ccnc2c(Cl)ccc(F)c12 [Example 83, 4-[3-(8-chloro-5-fluoroquinolin-4-yl)-2-methyl-7-(4H-1,2,4-triazol-3-yl)benzimidazol-5-yl]-3-fluoropyridin-2-amine]",2
22,"Nc1nccc(-c2cc(-c3nnc[nH]3)c3nc(C4CC4)n(-c4ccnc5c(Cl)ccc(F)c45)c3c2)c1F [Example 85, 4-[3-(8-chloro-5-fluoroquinolin-4-yl)-2-cyclopropyl-7-(4H-1,2,4-triazol-3-yl)benzimidazol-5-yl]-3-fluoropyridin-2-amine]",3
23,"Cc1nc2c(-c3nnc[nH]3)cc(-c3ccnc(N)c3F)cc2n1-c1ccnc2c(F)cccc12 [Example 86, 3-fluoro-4-[3-(8-fluoroquinolin-4-yl)-2-methyl-7-(4H-1,2,4-triazol-3-yl)benzimidazol-5-yl]pyridin-2-amine]",7
